Results reported in ChEMBL document CHEMBL2440076, “New triarylpyrazoles as broad-spectrum anticancer agents: design, synthesis, and biological evaluation” (Eur J Med Chem, 2013).

Tests used:
[1] = Growth inhibition of human Hs 578T cells after 48 hrs by sulforhodamine B assay; assay type: functional
NCI-H460 = experiment: Growth inhibition of human NCI-H460 cells after 48 hrs by sulforhodamine B assay; assay type: functional; conditions: NCI-H460, 48 h
SK-MEL-2 = experiment: Growth inhibition of human SK-MEL-2 cells assessed as cell growth at 10 uM after 48 hrs by sulforhodamine B assay; assay type: functional; conditions: SK-MEL-2, 48 h, read-out: Activity
IGROV-1 [2] = experiment: Growth inhibition of human IGROV1 cells assessed as cell growth at 10 uM after 48 hrs by sulforhodamine B assay; assay type: functional; conditions: IGROV-1, 48 h, read-out: Activity
NCI-H522 = experiment: Growth inhibition of human NCI-H522 cells after 48 hrs by sulforhodamine B assay; assay type: functional; conditions: NCI-H522, 48 h
MCF7 = experiment: Growth inhibition of human MCF7 cells after 48 hrs by sulforhodamine B assay; assay type: functional; conditions: MCF7, 48 h
NCI-H226 = experiment: Growth inhibition of human NCI-H226 cells after 48 hrs by sulforhodamine B assay; assay type: functional; conditions: NCI-H226, 48 h
LOX IMVI [3] = experiment: Growth inhibition of human LOXIMVI cells assessed as cell growth at 10 uM after 48 hrs by sulforhodamine B assay; assay type: functional; conditions: read-out: Activity
SF-295 = experiment: Growth inhibition of human SF295 cells after 48 hrs by sulforhodamine B assay; assay type: functional, cell-based; conditions: SF-295, 48 h
SF-268 [4] = experiment: Growth inhibition of human SF268 cells assessed as cell growth at 10 uM after 48 hrs by sulforhodamine B assay; assay type: functional; conditions: SF-268, 48 h, read-out: Activity
NCI-H23 = experiment: Growth inhibition of human NCI-H23 cells assessed as cell growth at 10 uM after 48 hrs by sulforhodamine B assay; assay type: functional; conditions: NCI-H23, 48 h, read-out: Activity
LOX IMVI [5] = experiment: Growth inhibition of human LOXIMVI cells after 48 hrs by sulforhodamine B assay; assay type: functional
A498 = experiment: Growth inhibition of human A498 cells after 48 hrs by sulforhodamine B assay; assay type: functional, cell-based; conditions: A498, 48 h
IGROV-1 [6] = experiment: Growth inhibition of human IGROV1 cells after 48 hrs by sulforhodamine B assay; assay type: functional; conditions: IGROV-1, 48 h
UACC-62 = experiment: Growth inhibition of human UACC62 cells assessed as cell growth at 10 uM after 48 hrs by sulforhodamine B assay; assay type: functional; conditions: UACC-62, 48 h, read-out: Activity
SN12C = experiment: Growth inhibition of human SN12C cells after 48 hrs by sulforhodamine B assay; assay type: functional
MDA-MB-435 = experiment: Growth inhibition of human MDA-MB-435 cells assessed as cell growth at 10 uM after 48 hrs by sulforhodamine B assay; assay type: functional; conditions: MDA-MB-435, 48 h, read-out: Activity
OVCAR-5 = experiment: Growth inhibition of human OVCAR5 cells after 48 hrs by sulforhodamine B assay; assay type: functional; conditions: OVCAR-5, 48 h
SW-620 = experiment: Growth inhibition of human SW620 cells assessed as cell growth at 10 uM after 48 hrs by sulforhodamine B assay; assay type: functional; conditions: SW-620, 48 h, read-out: Activity
ACHN = experiment: Growth inhibition of human ACHN cells assessed as cell growth at 10 uM after 48 hrs by sulforhodamine B assay; assay type: functional; conditions: read-out: Activity
Malme-3M [7] = experiment: Growth inhibition of human MALME-3M cells assessed as cell growth at 10 uM after 48 hrs by sulforhodamine B assay; assay type: functional; conditions: read-out: Activity
HOP-92 = experiment: Growth inhibition of human HOP92 cells after 48 hrs by sulforhodamine B assay; assay type: functional, cell-based; conditions: HOP-92, 48 h
OVCAR-4 = experiment: Growth inhibition of human OVCAR4 cells after 48 hrs by sulforhodamine B assay; assay type: functional; conditions: OVCAR-4, 48 h
786-0 = experiment: Growth inhibition of human 786-0 cells assessed as cell growth at 10 uM after 48 hrs by sulforhodamine B assay; assay type: functional; conditions: 786-0, 48 h, read-out: Activity
SF-268 [8] = experiment: Growth inhibition of human SF268 cells after 48 hrs by sulforhodamine B assay; assay type: functional; conditions: SF-268, 48 h
Malme-3M [9] = experiment: Growth inhibition of human MALME-3M cells after 48 hrs by sulforhodamine B assay; assay type: functional
PC-3 = experiment: Growth inhibition of human PC3 cells after 48 hrs by sulforhodamine B assay; assay type: functional, cell-based; conditions: PC-3, 48 h
SK-OV-3 = experiment: Growth inhibition of human SKOV3 cells after 48 hrs by sulforhodamine B assay; assay type: functional; conditions: SK-OV-3, 48 h
UO-31 = experiment: Growth inhibition of human UO31 cells assessed as cell growth at 10 uM after 48 hrs by sulforhodamine B assay; assay type: functional; conditions: UO-31, 48 h, read-out: Activity
SNB-75 = experiment: Growth inhibition of human SNB75 cells after 48 hrs by sulforhodamine B assay; assay type: functional; conditions: SNB-75, 48 h
HCT-116 = experiment: Growth inhibition of human HCT116 cells assessed as cell growth at 10 uM after 48 hrs by sulforhodamine B assay; assay type: functional; conditions: HCT-116, 48 h, read-out: Activity
CCRF-CEM = experiment: Growth inhibition of human CCRF-CEM cells after 48 hrs by sulforhodamine B assay; assay type: functional
M14 = experiment: Growth inhibition of human M14 cells after 48 hrs by sulforhodamine B assay; assay type: functional; conditions: M14, 48 h
HOP-62 = experiment: Growth inhibition of human HOP62 cells after 48 hrs by sulforhodamine B assay; assay type: functional; conditions: HOP-62, 48 h
[10] = read-out: LC50 (the source's name)

Which GI50 [1] does the source give for `COc1cc(-c2nn(-c3cccc(NC(=O)c4ccc(Cl)c(C(F)(F)F)c4)c3)cc2-c2ccncc2)ccc1Cl` here?
The GI50 was 2.17 µM.

What about the TGI [1] of the same compound?
Its TGI is greater than 32.5 µM.

And the CC50 [1, 10]?
Its CC50 is greater than 32.5 µM.

What about the GI50 (NCI-H460) of the same compound?
Its GI50 is 3.47 µM.

What about the LC50 (NCI-H460) of the same compound?
Its LC50 is greater than 32.5 µM.

And the TGI (NCI-H460)?
Its TGI is greater than 32.5 µM.

And the growth at 10 µM (SK-MEL-2)?
The growth at 10 µM was 18.9%.

And the growth at 10 µM (IGROV-1 [2])?
The growth at 10 µM was 48.9%.

And the GI50 (NCI-H522)?
Its GI50 is 1.04 µM.

And the LC50 (concentration killing 50% of cells) (NCI-H522)?
Its LC50 (concentration killing 50% of cells) is greater than 32.5 µM.

And the TGI (NCI-H522)?
The TGI was 13.4 µM.

What about the GI50 (MCF7) of the same compound?
Its GI50 is 2.24 µM.

What about the LC50 (MCF7) of the same compound?
Its LC50 is greater than 32.5 µM.

What about the TGI (MCF7) of the same compound?
Its TGI is greater than 32.5 µM.

And the GI50 (NCI-H226)?
The GI50 was 5.9 µM.

What about the TGI (NCI-H226) of the same compound?
Its TGI is greater than 32.5 µM.

What about the CC50 (NCI-H226; [10]) of the same compound?
Its CC50 is greater than 32.5 µM.

And the growth at 10 µM (LOX IMVI [3])?
Its growth at 10 µM is 32.2%.

What about the GI50 (SF-295) of the same compound?
Its GI50 is 1.38 µM.

What about the IC50 (SF-295) of the same compound?
Its IC50 is 1.38 µM.

And the TGI (SF-295)?
Its TGI is 17.3 µM.

What about the CC50 (SF-295; [10]) of the same compound?
Its CC50 is greater than 32.5 µM.

And the growth at 10 µM (SF-268 [4])?
The growth at 10 µM was 46.7%.

And the growth at 10 µM (NCI-H23)?
Its growth at 10 µM is 58.9%.

What about the GI50 (LOX IMVI [5]) of the same compound?
The GI50 was 1.92 µM.

What about the LC50 (LOX IMVI [5]) of the same compound?
The LC50 was greater than 32.5 µM.

And the TGI (LOX IMVI [5])?
The TGI was greater than 32.5 µM.

What about the GI50 (A498) of the same compound?
The GI50 was 2.7 µM.

What about the IC50 (A498) of the same compound?
Its IC50 is 2.7 µM.

What about the TGI (A498) of the same compound?
Its TGI is 22.7 µM.

What about the CC50 (A498; [10]) of the same compound?
The CC50 was greater than 32.5 µM.

And the GI50 (IGROV-1 [6])?
The GI50 was 2.15 µM.

And the LC50 (concentration killing 50% of cells) (IGROV-1 [6])?
Its LC50 (concentration killing 50% of cells) is greater than 32.5 µM.

What about the TGI (IGROV-1 [6]) of the same compound?
Its TGI is greater than 32.5 µM.

What about the growth at 10 µM (UACC-62) of the same compound?
The growth at 10 µM was 32.8%.

And the GI50 (SN12C)?
The GI50 was 11.2 µM.

What about the TGI (SN12C) of the same compound?
The TGI was greater than 32.5 µM.

What about the CC50 (SN12C; [10]) of the same compound?
Its CC50 is greater than 32.5 µM.

What about the growth at 10 µM (MDA-MB-435) of the same compound?
The growth at 10 µM was -26.8%.

What about the GI50 (OVCAR-5) of the same compound?
The GI50 was greater than 32.5 µM.

And the LC50 (concentration killing 50% of cells) (OVCAR-5)?
Its LC50 (concentration killing 50% of cells) is greater than 32.5 µM.

And the TGI (OVCAR-5)?
Its TGI is greater than 32.5 µM.

What about the growth at 10 µM (SW-620) of the same compound?
The growth at 10 µM was 36.1%.

What about the growth at 10 µM (ACHN) of the same compound?
Its growth at 10 µM is 39.1%.

What about the growth at 10 µM (Malme-3M [7]) of the same compound?
Its growth at 10 µM is 16.8%.

And the GI50 (HOP-92)?
Its GI50 is 0.665 µM.

What about the IC50 (HOP-92) of the same compound?
The IC50 was 0.67 µM.

And the LC50 (HOP-92)?
The LC50 was greater than 32.5 µM.

What about the TGI (HOP-92) of the same compound?
Its TGI is 3.23 µM.

And the GI50 (OVCAR-4)?
The GI50 was 8.04 µM.

What about the LC50 (concentration killing 50% of cells) (OVCAR-4) of the same compound?
Its LC50 (concentration killing 50% of cells) is greater than 32.5 µM.

What about the TGI (OVCAR-4) of the same compound?
The TGI was greater than 32.5 µM.

What about the growth at 10 µM (786-0) of the same compound?
Its growth at 10 µM is 59.5%.

What about the GI50 (SF-268 [8]) of the same compound?
The GI50 was 4.86 µM.

And the TGI (SF-268 [8])?
Its TGI is greater than 32.5 µM.

And the CC50 (SF-268 [8]; [10])?
The CC50 was greater than 32.5 µM.

What about the GI50 (Malme-3M [9]) of the same compound?
The GI50 was 1.18 µM.

And the LC50 (concentration killing 50% of starting cells) (Malme-3M [9])?
The LC50 (concentration killing 50% of starting cells) was greater than 32.5 µM.

And the TGI (Malme-3M [9])?
The TGI was 19.7 µM.

What about the GI50 (PC-3) of the same compound?
Its GI50 is 1.29 µM.

What about the IC50 (PC-3) of the same compound?
The IC50 was 1.29 µM.

What about the TGI (PC-3) of the same compound?
Its TGI is greater than 32.5 µM.

What about the CC50 (PC-3; [10]) of the same compound?
Its CC50 is greater than 32.5 µM.

What about the GI50 (SK-OV-3) of the same compound?
The GI50 was 9.29 µM.

And the TGI (SK-OV-3)?
The TGI was greater than 32.5 µM.

And the CC50 (SK-OV-3; [10])?
Its CC50 is greater than 32.5 µM.

What about the growth at 10 µM (UO-31) of the same compound?
Its growth at 10 µM is 37.1%.

And the GI50 (SNB-75)?
The GI50 was 2.19 µM.

What about the LC50 (lethal concentration, 50% net cell kill) (SNB-75) of the same compound?
Its LC50 (lethal concentration, 50% net cell kill) is greater than 32.5 µM.

What about the TGI (SNB-75) of the same compound?
The TGI was 29.2 µM.

What about the growth at 10 µM (HCT-116) of the same compound?
Its growth at 10 µM is 24%.

What about the GI50 (CCRF-CEM) of the same compound?
The GI50 was 1.77 µM.

And the LC50 (CCRF-CEM)?
The LC50 was greater than 32.5 µM.

And the TGI (CCRF-CEM)?
Its TGI is greater than 32.5 µM.

And the GI50 (M14)?
Its GI50 is 2.79 µM.

What about the LC50 (concentration killing 50% of cells) (M14) of the same compound?
Its LC50 (concentration killing 50% of cells) is greater than 32.5 µM.

And the TGI (M14)?
The TGI was greater than 32.5 µM.

And the GI50 (HOP-62)?
The GI50 was 13.1 µM.

What about the TGI (HOP-62) of the same compound?
Its TGI is greater than 32.5 µM.

What about the CC50 (HOP-62; [10]) of the same compound?
The CC50 was greater than 32.5 µM.
